# Measured values taken from paper PMC7162492, “Pharmacological and pharmacokinetic profile of the novel ocular hypotensive prodrug CKLP1 in Dutch-belted pigmented rabbits” (PLoS ONE, 2020).
# Values joined by “and” are separate entries in the source; they are usually repeats but may differ in a detail not shown here. Equal values may be shown once. “Also recorded” adds a separate entry of the source.
# How the values were obtained:
# [1] = Plasma pharmacokinetics after single intravenous injection of CKLP1 (LC-MS/MS); format: in vivo, Dutch-belted pigmented rabbits; conditions: rabbit, intravenous 0.25 mg/kg CKLP1
# Procedure: (§1) LC-MS/MS analysis of all fluids were performed using a Waters (Milford, MA) Acquity UPLC BEH C18 column (1.7 μm, 2.1 x 50 mm) with an Agilent EC-C18 pre-column (2.7 μm, 2.1 x 5 mm) and a gradient elution program containing ultra-pure water and acetonitrile with 2.5 mM ammonium formate, at a flow rate of 0.2 ml/min. Flavopiridol was used as an internal standard. The column and auto-sampler temperatures were maintained at 40°C and 4°C, respectively. Source parameters were capillary voltage, 2.6 kV; source temperature, 150°C; desolvation temperature, 500°C; cone gas flow, 150 L/h; and desolvation gas flow, 800 L/h. The cone voltages and collision energies for CKLP1, levcromakalim and flavopiridol were determined by MassLynx-Intellistart software, v4.1, and were 32, 34 and 72 V (cone) and 20, 14 and 30 eV (collision), respectively. The retention times were 4.5 minutes for CKLP1, 5.9 minutes for levcromakalim and 5.7 minutes for flavopiridol.
# (§2) To validate accurate measurement of CKLP1 and levcromakalim, known concentrations of CKLP1 (5, 10, 25, 50, 100, 250, 500 ng/ml) and levcromakalim (1, 5, 10, 25, 50, 100, 250 ng/ml) were added to human plasma (obtained from the Mayo Clinic Division of Transfusion Medicine under an Institutional Review Board approved protocol) to make calibration curves. Quality control was determined for each run by using known quantities of CKLP1 and levcromakalim to verify that the instrument recorded values consistent with the established standard curve. The effect of carryover was evaluated by injecting blank samples before and after running the standard samples for calibration curves. Unknown samples with signal to noise ratios >10 were recorded as acceptable concentrations. Samples with signal to noise ratios <10 were reported as not detectable (ND). Controls consisted of a double blank (without analytes and internal standard) and a single blank (only internal standard). The linearity of the calibration curves was determined by plotting the ratios of analytes to internal standard peak areas. The curve was fitted by least squares regression with a 1/x weighting for both CKLP1 and levcromakalim. Data was collected from 3–6.4 minutes for CKLP1 and 4–8 minutes for both levcromakalim and flavopiridol. Waters MassLynx Intellistart software v4.1 was used for analysis.
# (§3) All experiments with animals were pre-approved by the Institutional Animal Care and Use Committee of the Mayo Clinic, Rochester, MN and adhered to the recommendations in the Guide for the Care and use of Laboratory Animals of the National Institutes of Health, and the tenets of the ARVO Statement for the Use of Animals in Vision Research. Female Dutch-belted pigmented rabbits (age 7 months) were obtained from Covance Research Products, Inc. (Denver, PA). Rabbits were housed in pairs and kept in a climate controlled room with 12 h light and dark cycles. Animals had unrestrained access to water and standard rabbit food pellets at all times. Upon receipt, animals were acclimated for at least 5 days before initiation of the experiment. IOP was measured with a handheld rebound tonometer (Icare Tonovet, Colonial Medical Supply, Franconia, NH, USA) in conscious and minimally restrained, non-anesthetized rabbits as previously described. Briefly, daily IOP was calculated from the average of 3 independent IOP measurements at 3 different time points each day. These time points corresponded to 1 h, 4 h and 23 h post treatment on any given day. Rabbits that needed to be handled for IOP were subjected to sham IOP measurements for two days prior to initiation of experiment. Rabbits (n = 3) were injected intravenously through the right ear vein with CKLP1 as a bolus dose equal to 0.25 mg/kg body weight. Additional rabbits were treated topically through instillation of 50 μl eye drops of a 10 mM (4.1 mg/ml) solution of CKLP1 in sterile PBS. […]
# [2] = Plasma pharmacokinetics after topical eye drops of CKLP1, days 1, 4 and 8 (LC-MS/MS); format: in vivo, Dutch-belted pigmented rabbits; conditions: for AUClast / Clast / Cmax / Tlast / Tmax / half-life: plasma
# Procedure: as §1, §2, §3
# [3] = Concentration in aqueous and vitreous humor after topical CKLP1 for 1, 4 or 8 days (LC-MS/MS); format: in vivo, Dutch-belted pigmented rabbits; conditions: topical CKLP1 both eyes, days 1, 4 and 8, collected after the 24 h blood sample
# Procedure: as §1, §2, §3
# [4] = Tissue and fluid distribution after 90 days of daily topical CKLP1 (LC-MS/MS); format: in vivo, Dutch-belted pigmented rabbits; conditions: topical eye drops 10 mM CKLP1, 90 consecutive days
# Procedure: as §1, §2, §3
# phosphatases = experiment: In vitro cleavage of CKLP1 by phosphatases (unpublished data); format: in vitro ADME
# [5] = design: method as in earlier work; conditions: ref Roy Chowdhury U, Viker KB, Stoltz KL, et al. J Med Chem. 2016;59(13):6221-31; cited from earlier work
# [6] = eye drops 10 mM CKLP1 both eyes once daily, Day 4
# [7] = eye drops 10 mM CKLP1 both eyes once daily, Day 8
# [8] = eye drops 10 mM CKLP1 both eyes, Day 1
substance,measurement,setting,value
"sodium [CKLP1, sodium [(3S,4R)-6-cyano-2,2-dimethyl-4-(2-oxopyrrolidin-1-yl)-chroman-3-yl phosphate]]",AUClast,[1],2164.0 ± 482.5 ng·h/mL
same,Clast,[1],34.9 ± 42.4 ng/mL
same,Cmax,[1],1968.5 ± 831.0 ng/mL
same,Tlast,[1],5.6 ± 1.8 h
same,Tmax,[1],19.8 ± 23.0 min
same,half-life,[1],61.8 ± 55.2 min
same,AUClast,[2]; [6],360 ± 82 ng·h/mL
same,Clast,[2]; [6],4.2 ± 2.6 ng/mL
same,Cmax,[2]; [6],30.6 ± 7.3 ng/mL
same,Tlast,[2]; [6],24.0 ± 0.0 h
same,Tmax,[2]; [6],325.0 ± 268.5 min
same,half-life,[2]; [6],6.7 ± 2.0 min
same,AUClast,[2]; [7],341 ± 45.2 ng·h/mL
same,Clast,[2]; [7],4.2 ± 1.5 ng/mL
same,Cmax,[2]; [7],36.3 ± 13.3 ng/mL
same,Tlast,[2]; [7],24.0 ± 0.0 h
same,Tmax,[2]; [7],20.0 ± 8.7 min
same,half-life,[2]; [7],7.7 ± 3.0 min
same,AUClast,[2]; [8],271 ± 55 ng·h/mL
same,Clast,[2]; [8],5.1 ± 1.1 ng/mL
same,Cmax,[2]; [8],20.0 ± 6.3 ng/mL
same,Tlast,[2]; [8],24.0 ± 0.0 h
same,Tmax,[2]; [8],360.0 ± 207.9 min
same,half-life,[2]; [8],10.7 ± 4.1 min
same,Amount in plasma after topical CKLP1,[2]; topical 10 mM CKLP1 in the eye,trace amounts
same,Concentration in aqueous humor,[3],No CKLP1 was detected; also recorded: below detectable limits
same,Concentration in vitreous humor,[3],No CKLP1 was detected; also recorded: below detectable limits
same,Concentration in Brain,[4],not detected
same,Concentration in Heart,[4],not detected
same,Concentration in Kidney,[4],15.8 ±1.8 ng/g and 15.8 ± 1.8 (n = 6/6) ng/g
same,Concentration in Muscle,[4],not detected
same,Concentration in Plasma,[4],no detectable levels
same,Concentration in aqueous humor,[4],undetectable
same,Concentration in vitreous humor,[4],undetectable
same,Cleavage by phosphatases to cromakalim in vitro,phosphatases,never completely cleaved
same,Solubility in water,[5],water soluble
